Measurements reported in patent US9085555B2, “Complement pathway modulators and uses thereof” (priority 2011, dated 2015).
Counter-ions that a name gives are not always drawn.

The molecules below were run against Factor D (Homo sapiens (Human), UniProt P00746) (assay: biochemical). Settings: read-out: IC50.
Factor D, sequence (P00746 26-253): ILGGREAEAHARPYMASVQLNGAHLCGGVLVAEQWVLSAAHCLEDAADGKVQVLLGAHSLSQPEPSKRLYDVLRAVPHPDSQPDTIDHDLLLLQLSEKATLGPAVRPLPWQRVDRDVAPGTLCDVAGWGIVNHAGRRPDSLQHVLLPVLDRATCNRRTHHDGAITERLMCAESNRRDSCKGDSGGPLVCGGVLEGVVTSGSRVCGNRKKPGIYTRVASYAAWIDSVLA
Assay type: biochemical
In the case of `CO[C@H]1[C@@H](C(=O)NCc2cccc(Cl)c2F)N(C(=O)Cn2nc(C(N)=O)c3cc(C)ncc32)C[C@@H]1F` [Example 661, 1-{2-[(2S,3S,4S)-2-(3-Chloro-2-fluoro-benzylcarbamoyl)-4-fluoro-3-methoxy-pyrrolidin-1-yl]-2-oxo-ethyl}-5-methyl-1H-pyrazolo[3,4-c]pyridine-3-carboxylic acid amide], the IC50 is reported as 0.01 µM. In the case of `CO[C@H]1[C@@H](C(=O)NCc2cccc(Cl)c2F)N(C(=O)Cn2nc(C(N)=O)c3ccncc32)C[C@@H]1F` [Example 662, 1-{2-[(2S,3S,4S)-2-(3-Chloro-2-fluoro-benzylcarbamoyl)-4-fluoro-3-methoxy-pyrrolidin-1-yl]-2-oxo-ethyl}-1H-pyrazolo[3,4-c]pyridine-3-carboxylic acid amide], the IC50 is reported as 0.013 µM. `CO[C@H]1[C@@H](C(=O)NCc2cccc(Cl)c2F)N(C(=O)Cn2nc(C(N)=O)c3cnccc32)C[C@@H]1F` [Example 663, 1-{2-[(2S,3S,4S)-2-(3-Chloro-2-fluoro-benzylcarbamoyl)-4-fluoro-3-methoxy-pyrrolidin-1-yl]-2-oxo-ethyl}-1H-pyrazolo[4,3-c]pyridine-3-carboxylic acid amide] was tested, and the IC50 was 0.036 µM. For `CO[C@H]1[C@@H](C(=O)N[C@H](C)c2cccc(Cl)c2F)N(C(=O)Cn2nc(C(N)=O)c3ccncc32)C[C@@H]1F` [Example 664, 1-(2-{(2S,3S,4S)-2-[(R)-1-(3-Chloro-2-fluoro-phenyl)-ethylcarbamoyl]-4-fluoro-3-methoxy-pyrrolidin-1-yl}-2-oxo-ethyl)-1H-pyrazolo[3,4-c]pyridine-3-carboxylic acid amide], the IC50 was 0.024 µM. For `CO[C@H]1[C@@H](C(=O)N[C@H](C)c2cccc(Cl)c2F)N(C(=O)Cn2nc(C(N)=O)c3cnccc32)C[C@@H]1F` [Example 665, 1-(2-{(2S,3S,4S)-2-[(R)-1-(3-Chloro-2-fluoro-phenyl)-ethylcarbamoyl]-4-fluoro-3-methoxy-pyrrolidin-1-yl}-2-oxo-ethyl)-1H-pyrazolo[4,3-c]pyridine-3-carboxylic acid amide], the IC50 was 0.058 µM. `CC(=O)c1cn(CC(=O)N2[C@@H]3C[C@@H]3C[C@H]2C(=O)NCc2cccc(Cl)c2F)c2ccc(OCc3ncccn3)cc12` [Example 666, (1R,3S,5R)-2-{2-[3-Acetyl-5-(pyrimidin-2-ylmethoxy)-indol-1-yl]-acetyl}-2-aza-bicyclo [3.1.0]hexane-3-carboxylic acid 3-chloro-2-fluoro-benzylamide] was tested, and the IC50 was 0.006 µM. Work on `CCO[C@H]1[C@@H](C(=O)NCc2cccc(Cl)c2F)N(C(=O)Cn2cc(C(C)=O)c3cc(C)ncc32)C[C@@H]1F` [Example 667, (2S,3S,4S)-1-[2-(3-Acetyl-5-methyl-pyrrolo[2,3-c]pyridin-1-yl)-acetyl]-3-ethoxy-4-fluoro-pyrrolidine-2-carboxylic acid 3-chloro-2-fluoro-benzylamide formate] yielded an IC50 of 0.016 µM. For `NC(=O)c1nn(CC(=O)N2[C@@H]3C[C@@H]3C[C@H]2C(=O)Nc2cccc(Br)c2F)c2cnccc12` [Example 668, 1-{2-[(1R,3S,5R)-3-(3-Bromo-2-fluoro-phenylcarbamoyl)-2-aza-bicyclo[3.1.0]hex-2-yl]-2-oxo-ethyl}-1H-pyrazolo[3,4-c]pyridine-3-carboxylic acid amide], the IC50 was 0.019 µM. With `Cc1cc2c(C(N)=O)nn(CC(=O)N3[C@@H]4C[C@@H]4C[C@H]3C(=O)Nc3cccc(Br)c3F)c2cn1` [Example 670, 1-{2-[(1R,3S,5R)-3-(3-Bromo-2-fluoro-phenylcarbamoyl)-2-aza-bicyclo[3.l.0]hex-2-yl]-2-oxo-ethyl}-5-methyl-1H-pyrazolo[3,4-c]pyridine-3-carboxylic acid amide] the IC50 was 0.09 µM. `CCc1cc2c(C(N)=O)nn(CC(=O)N3[C@@H]4C[C@@H]4C[C@H]3C(=O)Nc3cccc(Br)c3F)c2cn1` [Example 671, 1-{2-[(1R,3S,5R)-3-(3-Bromo-2-fluoro-phenylcarbamoyl)-2-aza-bicyclo[3.1.0]hex-2-yl]-2-oxo-ethyl}-5-ethyl-1H-pyrazolo[3,4-c]pyridine-3-carboxylic acid amide] gave an IC50 of 0.077 µM. Work on `CC(C)c1cccc(NC(=O)[C@@H]2C[C@H]3C[C@H]3N2C(=O)Cn2nc(C(N)=O)c3ccncc32)n1` [Example 673, 1-{2-[(1R,3S,5R)-3-(6-Isopropyl-pyridin-2-ylcarbamoyl)-2-aza-bicyclo [3.1.0]hex-2-yl]-2-oxo-ethyl}-1H-pyrazolo[3,4-c]pyridine-3-carboxylic acid amide] yielded an IC50 of 0.157 µM. In the case of `NC(=O)c1nn(CC(=O)N2[C@@H]3C[C@@H]3C[C@H]2C(=O)Nc2cccc(C3CC3)c2F)c2ccccc12` [Example 674, 1-{2-[(1R,3S,5R)-3-(3-Cyclopropyl-2-fluoro-phenylcarbamoyl)-2-aza-bicyclo[3.2.1]hex-2-yl]-2-oxo-ethyl}-1H-indazole-3-carboxylic acid amide], the IC50 is reported as 0.075 µM. `C[C@@]12C[C@@H](C(=O)NCc3cccc(Cl)c3F)N(C(=O)Cn3nc(C(N)=O)c4ccncc43)[C@@H]1C2` [Example 675, 1-{2-[(1R,3S,5R)-3-(3-Chloro-2-fluoro-benzylcarbamoyl)-5-methyl-2-aza-bicyclo [3.1.0]hex-2-yl]-2-oxo-ethyl}-1H-pyrazolo[3,4-c]pyridine-3-carboxylic acid amide] was tested, and the IC50 was 0.023 µM. Molecule `CC(=O)c1nn(CC(=O)N2[C@@H]3C[C@@H]3C[C@H]2C(=O)N[C@H](CO)c2cccc(Cl)c2F)c2ncccc12` [Example 677, (1R,3S,5R)-2-[2-(3-Acetyl-pyrazolo[3,4-b]pyridin-1-yl)-acetyl]-2-aza-bicyclo [3.1.0]hexane-3-carboxylic acid [(S)-1-(3-chloro-2-fluoro-phenyl)-2-hydroxy-ethyl]-amide] has an IC50 of 0.01 µM. `COC[C@@H](NC(=O)[C@@H]1C[C@H]2C[C@H]2N1C(=O)Cc1nc(C(C)=O)c2ccccn12)c1cccc(Cl)c1F` [Example 678, (1R,3S,5R)-2-[2-(1-Acetyl-imidazo[1,5-a]pyridin-3-yl)-acetyl]-2-aza-bicyclo [3.1.0]hexane-3-carboxylic acid [(S)-1-(3-chloro-2-fluoro-phenyl)-2-methoxy-ethyl]-amide] was tested, and the IC50 was 0.04 µM. For `CC(=O)c1nc(CC(=O)N2[C@@H]3C[C@@H]3C[C@H]2C(=O)N[C@H](CC#N)c2cccc(Cl)c2F)n2ccccc12` [Example 679, (1R,3S,5R)-2-[2-(1-Acetyl-imidazo[1,5-a]pyridin-3-yl)-acetyl]-2-aza-bicyclo[3.1.0]hexane-3-carboxylic acid [(R)-1-(3-chloro-2-fluoro-phenyl)-2-cyano-ethyl]-amide], the IC50 was 0.134 µM. `CO[C@H]1[C@@H](C(=O)NCc2cccc(Cl)c2F)N(C(=O)Cn2nc(C(C)=O)c3ccccc32)C[C@@H]1F` [Example 680, (2S,3S,4S)-1-[2-(3-Acetyl-indazol-1-yl)-acetyl]-4-fluoro-3-methoxy-pyrrolidine-2-carboxylic acid 3-chloro-2-fluoro-benzylamide] gave an IC50 of 0.016 µM. `CO[C@H]1[C@@H](C(=O)NCc2cccc(Cl)c2F)N(C(=O)Cn2cc(C(C)=O)c3ccncc32)C[C@@H]1F` [Example 681, (2S,3S,4S)-1-[2-(3-Acetyl-pyrrolo[2,3-c]pyridin-1-yl)-acetyl]-4-fluoro-3-methoxy-pyrrolidine-2-carboxylic acid 3-chloro-2-fluoro-benzylamide] gave an IC50 of 0.019 µM. With `CO[C@H]1[C@@H](C(=O)NCc2cccc(Cl)c2F)N(C(=O)Cn2nc(C(C)=O)c3ccncc32)C[C@@H]1F` [Example 682, (2S,3S,4S)-1-[2-(3-Acetyl-pyrazolo[3,4-c]pyridin-1-yl)-acetyl]-4-fluoro-3-methoxy-pyrrolidine-2-carboxylic acid 3-chloro-2-fluoro-benzylamide] the IC50 was 0.012 µM. `NC(=O)c1nn(CC(=O)N2[C@@H]3C[C@@H]3C[C@H]2C(=O)Nc2cccc(-c3ccccc3F)c2F)c2cnccc12` [Example 684, 1-{2-[(1R,3S,5R)-3-(2,2′-Difluoro-biphenyl-3-ylcarbamoyl)-2-aza-bicyclo[3.1.0]hex-2-yl]-2-oxo-ethyl}-1H-pyrazolo[3,4-c] pyridine-3-carboxylic acid amide] was tested, and the IC50 was 0.027 µM. With `NC(=O)c1nn(CC(=O)N2[C@@H]3C[C@@H]3C[C@H]2C(=O)Nc2cccc(-c3ccccc3Cl)c2F)c2cnccc12` [Example 685, 1-{2-[(1R,3S,5R)-3-(2′-Chloro-2-fluoro-biphenyl-3-ylcarbamoyl)-2-aza-bicyclo[3.1.0]hex-2-yl]-2-oxo-ethyl}-1H-pyrazolo[3,4-c] pyridine-3-carboxylic acid amide] the IC50 was 0.005 µM. With `NC(=O)c1nn(CC(=O)N2[C@@H]3C[C@@H]3C[C@H]2C(=O)Nc2cccc(-c3ncccc3F)c2F)c2ccccc12` [Example 686, 1-(2-{(1R,3S,5R)-3-[2-Fluoro-3-(3-fluoro-pyridin-2-yl)-phenylcarbamoyl]-2-aza-bicyclo[3.1.0]hex-2-yl}-2-oxo-ethyl)-1H-indazole-3-carboxylic acid amide] the IC50 was 0.03 µM. Molecule `Cc1cccnc1-c1cccc(NC(=O)[C@@H]2C[C@H]3C[C@H]3N2C(=O)Cn2nc(C(N)=O)c3ccncc32)c1F` [Example 687, 1-(2-{(1R,3S,5R)-3-[2-Fluoro-3-(3-methyl-pyridin-2-yl)-phenylcarbamoyl]-2-aza-bicyclo[3.1.0]hex-2-yl}-2-oxo-ethyl)-1H-pyrazolo[3,4-c] pyridine-3-carboxylic acid amide] has an IC50 of 0.098 µM. `NC(=O)c1nn(CC(=O)N2[C@@H]3C[C@@H]3C[C@H]2C(=O)Nc2cccc(-c3ncccc3Cl)c2F)c2cnccc12` [Example 688, 1-(2-{(1R,3S,5R)-3-[3-(3-Chloro-pyridin-2-yl)-2-fluoro-phenylcarbamoyl]-2-aza-bicyclo[3.1.0]hex-2-yl}-2-oxo-ethyl)-1H-pyrazolo[3,4-c] pyridine-3-carboxylic acid amide] was tested, and the IC50 was 0.01 µM. Molecule `COC(=O)c1ccc2c(C(C)=O)cn(CC(=O)N3[C@@H]4C[C@@H]4C[C@H]3C(=O)NCc3cccc(Cl)c3F)c2n1` [Example 689, 3-Acetyl-1-{2-[(1R,3S,5R)-3-(3-chloro-2-fluoro-benzylcarbamoyl)-2-aza-bicyclo[3.1.0]hex-2-yl]-2-oxo-ethyl}-1H-pyrrolo[2,3-b] pyridine-6-carboxylic acid methyl ester] has an IC50 of 0.156 µM.
